Source: ChEMBL document CHEMBL1137449, “A refined agonist pharmacophore for protease activated receptor 2” (Bioorg Med Chem Lett, 2007)
Numbered stars: 1 amine (or outer) side, 2 acyl side, 3 side chain; on linkers, the order of the positions; unused ones are H or OH. Square brackets hold non-standard residues; d marks the D form. Peptide text beside a SMILES is read from it. * marks the point of attachment. Tyr(3,5-(NO2)2) = N[C@@H](Cc1cc([N+](=O)[O-])c(O)c([N+](=O)[O-])c1)C(=O)O; X1 = CC[C@H](C)[C@H](N)C(=O)NC(=O)[C@H](Cc1ccc([N+](=O)[O-])cc1)N*; Tyr(3-NO2) = N[C@@H](Cc1ccc(O)c([N+](=O)[O-])c1)C(=O)O; X2 = CCOP(=O)(Cc1ccc(C[C@H](N[*:1])C(=O)[*:2])cc1)OCC; Phe(4-NO2) = N[C@@H](Cc1ccc([N+](=O)[O-])cc1)C(=O)O; Phe(4-N3) = [N-]=[N+]=Nc1ccc(C[C@H](N)C(=O)O)cc1; Phe(3,4-(OMe)2) = COc1ccc(C[C@H](N)C(=O)O)cc1OC; Phe(3,4-Cl2) = N[C@@H](Cc1ccc(Cl)c(Cl)c1)C(=O)O; Phe(4-COOH) = N[C@@H](Cc1ccc(C(=O)O)cc1)C(=O)O; Phe(4-tBu) = CC(C)(C)c1ccc(C[C@H](N)C(=O)O)cc1; Phe(3-CN) = N#Cc1cccc(C[C@H](N)C(=O)O)c1; Phe(3-OMe) = COc1cccc(C[C@H](N)C(=O)O)c1; Phe(4-CN) = N#Cc1ccc(C[C@H](N)C(=O)O)cc1; Phe(4-Cl) = N[C@@H](Cc1ccc(Cl)cc1)C(=O)O; Phe(4-F) = N[C@@H](Cc1ccc(F)cc1)C(=O)O; Phe(4-I) = N[C@@H](Cc1ccc(I)cc1)C(=O)O; 1Nal = N[C@@H](Cc1cccc2ccccc12)C(=O)O; Bta = N[C@@H](Cc1csc2ccccc12)C(=O)O; hTyr = N[C@@H](CCc1ccc(O)cc1)C(=O)O; hPhe = N[C@@H](CCc1ccccc1)C(=O)O; 3Pal = N[C@@H](Cc1cccnc1)C(=O)O; 4Pal = N[C@@H](Cc1ccncc1)C(=O)O; Cha = N[C@@H](CC1CCCCC1)C(=O)O; Nle = CCCC[C@H](N)C(=O)O; 2Furoyl = O=C(c1ccco1)*

biological target: T1, Proteinase-activated receptor 2 (Homo sapiens, UniProt P55085); experiment: Agonist activity at PAR2 expressed in human HT29 cells assessed as intracellular calcium release; format: functional, cell-based, HT-29
T1 sequence (P55085 whole entry): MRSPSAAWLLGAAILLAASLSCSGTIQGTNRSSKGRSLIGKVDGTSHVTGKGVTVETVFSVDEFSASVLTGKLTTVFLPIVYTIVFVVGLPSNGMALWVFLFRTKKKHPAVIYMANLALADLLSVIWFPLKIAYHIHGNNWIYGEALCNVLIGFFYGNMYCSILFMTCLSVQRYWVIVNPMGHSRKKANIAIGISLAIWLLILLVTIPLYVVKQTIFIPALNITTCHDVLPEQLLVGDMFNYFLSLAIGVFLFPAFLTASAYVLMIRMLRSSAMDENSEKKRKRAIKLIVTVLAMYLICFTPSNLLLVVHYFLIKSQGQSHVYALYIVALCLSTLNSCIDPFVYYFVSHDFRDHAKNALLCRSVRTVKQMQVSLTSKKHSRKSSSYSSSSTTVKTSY

EC50 [nM]	SMILES
1200	CC[C@H](C)[C@H](NC(=O)[C@H](CC(C)C)NC(=O)[C@@H](N)CO)C(=O)NCC(=O)N[C@@H](CCCNC(=N)N)C(=O)N[C@@H](CC(C)C)C(=O)N[C@@H](CC(C)C)C(N)=O (H-SLIGRLL-NH2)
1200	CC[C@H](C)[C@H](NC(=O)[C@H](CC(C)C)NC(=O)[C@@H](N)CO)C(=O)NCC(=O)N[C@@H](CCCNC(=N)N)C(=O)N[C@@H](CC(C)C)C(=O)N[C@@H](Cc1ccc(O)cc1)C(N)=O (H-SLIGRLY-NH2)
1100	CC[C@H](C)[C@H](NC(=O)[C@H](CC(C)C)NC(=O)[C@@H](N)CO)C(=O)NCC(=O)N[C@@H](CCCNC(=N)N)C(=O)N[C@@H](CC(C)C)C(=O)N[C@@H](Cc1cccc2ccccc12)C(N)=O (H-SLIGRL[1Nal]-NH2)
2000	CC[C@H](C)[C@H](NC(=O)[C@H](CC(C)C)NC(=O)[C@@H](N)CO)C(=O)NCC(=O)N[C@@H](CCCNC(=N)N)C(=O)N[C@@H](CC(C)C)C(=O)N[C@@H](Cc1ccc(F)cc1)C(N)=O (H-SLIGRL[Phe(4-F)]-NH2)
1000	CC[C@H](C)[C@H](NC(=O)[C@H](CC(C)C)NC(=O)[C@@H](N)CO)C(=O)NCC(=O)N[C@@H](CCCNC(=N)N)C(=O)N[C@@H](CC(C)C)C(=O)N[C@@H](CCc1ccccc1)C(N)=O (H-SLIGRL[hPhe]-NH2)
600	CC[C@H](C)[C@H](NC(=O)[C@H](CC(C)C)NC(=O)[C@@H](N)CO)C(=O)NCC(=O)N[C@@H](CCCNC(=N)N)C(=O)N[C@@H](CC(C)C)C(=O)N[C@@H](CCc1ccc(O)cc1)C(N)=O (H-SLIGRL[hTyr]-NH2)
5000	CC[C@H](C)[C@H](NC(=O)[C@H](Cc1ccc(C(=O)O)cc1)NC(=O)[C@H](CCCNC(=N)N)NC(=O)CNC(=O)[C@@H](NC(=O)[C@H](CC(C)C)NC(=O)[C@@H](N)CO)[C@@H](C)CC)C(N)=O (H-SLIGR[Phe(4-COOH)]I-NH2)
500	CC[C@H](C)[C@H](NC(=O)[C@H](Cc1ccc(Cl)cc1)NC(=O)[C@H](CCCNC(=N)N)NC(=O)CNC(=O)[C@@H](NC(=O)[C@H](CC(C)C)NC(=O)[C@@H](N)CO)[C@@H](C)CC)C(N)=O (H-SLIGR[Phe(4-Cl)]I-NH2)
600	CC[C@H](C)[C@H](NC(=O)[C@H](Cc1ccc(I)cc1)NC(=O)[C@H](CCCNC(=N)N)NC(=O)CNC(=O)[C@@H](NC(=O)[C@H](CC(C)C)NC(=O)[C@@H](N)CO)[C@@H](C)CC)C(N)=O (H-SLIGR[Phe(4-I)]I-NH2)
3000	CC[C@H](C)[C@H](NC(=O)[C@H](CCc1ccc(O)cc1)NC(=O)[C@H](CCCNC(=N)N)NC(=O)CNC(=O)[C@@H](NC(=O)[C@H](CC(C)C)NC(=O)[C@@H](N)CO)[C@@H](C)CC)C(N)=O (H-SLIGR[hTyr]I-NH2)

The next lines start with the molecule.

SMILES	EC50 [nM]
CC[C@H](C)[C@H](NC(=O)[C@H](COc1ccc([N+](=O)[O-])cc1)NC(=O)[C@H](CCCNC(=N)N)NC(=O)CNC(=O)[C@@H](NC(=O)[C@H](CC(C)C)NC(=O)[C@@H](N)CO)[C@@H](C)CC)C(N)=O	2800
CC[C@H](C)[C@H](N)C(=O)NC(=O)[C@H](Cc1ccc([N+](=O)[O-])cc1)NC(=O)[C@H](CCCNC(=N)N)NC(=O)CNC(=O)[C@@H](NC(=O)[C@H](CC(C)C)NC(=O)c1ccco1)[C@@H](C)CC (2Furoyl-LIGR-X1)	200
CC[C@H](C)[C@H](NC(=O)[C@H](CC(C)C)NC(=O)c1ccco1)C(=O)NCC(=O)N[C@@H](CCCNC(=N)N)C(=O)N[C@@H](Cc1ccc([N+](=O)[O-])cc1)C(N)=O (2Furoyl-LIGR[Phe(4-NO2)]-NH2)	170
CC[C@H](C)[C@H](NC(=O)[C@H](Cc1ccccc1)NC(=O)[C@H](CCCNC(=N)N)NC(=O)CNC(=O)[C@@H](NC(=O)[C@H](CC(C)C)NC(=O)[C@@H](N)CO)[C@@H](C)CC)C(N)=O (H-SLIGRFI-NH2)	1000
CC[C@H](C)[C@H](NC(=O)[C@H](CC(C)C)NC(=O)[C@@H](N)CO)C(=O)NCC(=O)N[C@@H](CCCNC(=N)N)C(=O)N[C@@H](CC(C)C)C(N)=O (H-SLIGRL-NH2)	4200
CC[C@H](C)[C@H](NC(=O)[C@H](CC(C)C)NC(=O)[C@H](CCCN=C(N)N)NC(=O)CNC(=O)[C@@H](NC(=O)[C@H](CC(C)C)NC(=O)[C@@H](N)CO)[C@@H](C)CC)C(N)=O (H-SLIGRLI-NH2)	700
CC[C@H](C)[C@H](NC(=O)[C@H](CC(C)C)NC(=O)[C@@H](N)CO)C(=O)NCC(=O)N[C@@H](CCCNC(=N)N)C(=O)N[C@@H](CC(C)C)C(=O)N[C@@H](CC1CCCCC1)C(N)=O (H-SLIGRL[Cha]-NH2)	3600
CCCC[C@H](NC(=O)[C@H](CC(C)C)NC(=O)[C@H](CCCNC(=N)N)NC(=O)CNC(=O)[C@@H](NC(=O)[C@H](CC(C)C)NC(=O)[C@@H](N)CO)[C@@H](C)CC)C(N)=O (H-SLIGRL[Nle]-NH2)	1200
CC[C@H](C)[C@H](NC(=O)[C@H](Cc1ccc(O)cc1)NC(=O)[C@H](CCCN=C(N)N)NC(=O)CNC(=O)[C@@H](NC(=O)[C@H](CC(C)C)NC(=O)[C@@H](N)CO)[C@@H](C)CC)C(N)=O (H-SLIGRYI-NH2)	400
CC[C@H](C)[C@H](NC(=O)[C@H](Cc1cccnc1)NC(=O)[C@H](CCCNC(=N)N)NC(=O)CNC(=O)[C@@H](NC(=O)[C@H](CC(C)C)NC(=O)[C@@H](N)CO)[C@@H](C)CC)C(N)=O (H-SLIGR[3Pal]I-NH2)	1100
CC[C@H](C)[C@H](NC(=O)[C@H](Cc1ccncc1)NC(=O)[C@H](CCCNC(=N)N)NC(=O)CNC(=O)[C@@H](NC(=O)[C@H](CC(C)C)NC(=O)[C@@H](N)CO)[C@@H](C)CC)C(N)=O (H-SLIGR[4Pal]I-NH2)	1900
CC[C@H](C)[C@H](NC(=O)[C@H](Cc1csc2ccccc12)NC(=O)[C@H](CCCNC(=N)N)NC(=O)CNC(=O)[C@@H](NC(=O)[C@H](CC(C)C)NC(=O)[C@@H](N)CO)[C@@H](C)CC)C(N)=O (H-SLIGR[Bta]I-NH2)	300
CC[C@H](C)[C@H](NC(=O)[C@H](Cc1ccc(OC)c(OC)c1)NC(=O)[C@H](CCCNC(=N)N)NC(=O)CNC(=O)[C@@H](NC(=O)[C@H](CC(C)C)NC(=O)[C@@H](N)CO)[C@@H](C)CC)C(N)=O (H-SLIGR[Phe(3,4-(OMe)2)]I-NH2)	1300
CC[C@H](C)[C@H](NC(=O)[C@H](Cc1ccc(Cl)c(Cl)c1)NC(=O)[C@H](CCCN=C(N)N)NC(=O)CNC(=O)[C@@H](NC(=O)[C@H](CC(C)C)NC(=O)[C@@H](N)CO)[C@@H](C)CC)C(N)=O (H-SLIGR[Phe(3,4-Cl2)]I-NH2)	300
CC[C@H](C)[C@H](NC(=O)[C@H](Cc1cccc(C#N)c1)NC(=O)[C@H](CCCNC(=N)N)NC(=O)CNC(=O)[C@@H](NC(=O)[C@H](CC(C)C)NC(=O)[C@@H](N)CO)[C@@H](C)CC)C(N)=O (H-SLIGR[Phe(3-CN)]I-NH2)	1700
CC[C@H](C)[C@H](NC(=O)[C@H](Cc1cccc(OC)c1)NC(=O)[C@H](CCCNC(=N)N)NC(=O)CNC(=O)[C@@H](NC(=O)[C@H](CC(C)C)NC(=O)[C@@H](N)CO)[C@@H](C)CC)C(N)=O (H-SLIGR[Phe(3-OMe)]I-NH2)	3300
CC[C@H](C)[C@H](NC(=O)[C@H](Cc1ccc(C#N)cc1)NC(=O)[C@H](CCCNC(=N)N)NC(=O)CNC(=O)[C@@H](NC(=O)[C@H](CC(C)C)NC(=O)[C@@H](N)CO)[C@@H](C)CC)C(N)=O (H-SLIGR[Phe(4-CN)]I-NH2)	900
CC[C@H](C)[C@H](NC(=O)[C@H](Cc1ccc(N=[N+]=[N-])cc1)NC(=O)[C@H](CCCNC(=N)N)NC(=O)CNC(=O)[C@@H](NC(=O)[C@H](CC(C)C)NC(=O)[C@@H](N)CO)[C@@H](C)CC)C(N)=O (H-SLIGR[Phe(4-N3)]I-NH2)	2500
CC[C@H](C)[C@H](NC(=O)[C@H](CC(C)C)NC(=O)[C@@H](N)CO)C(=O)NCC(=O)N[C@@H](CCCNC(=N)N)C(=O)N[C@@H](Cc1ccc([N+](=O)[O-])cc1)C(N)=O (H-SLIGR[Phe(4-NO2)]-NH2)	600
CC[C@H](C)[C@H](NC(=O)[C@H](Cc1ccc(C(C)(C)C)cc1)NC(=O)[C@H](CCCNC(=N)N)NC(=O)CNC(=O)[C@@H](NC(=O)[C@H](CC(C)C)NC(=O)[C@@H](N)CO)[C@@H](C)CC)C(N)=O (H-SLIGR[Phe(4-tBu)]I-NH2)	600
CC[C@H](C)[C@H](NC(=O)[C@H](Cc1cc([N+](=O)[O-])c(O)c([N+](=O)[O-])c1)NC(=O)[C@H](CCCNC(=N)N)NC(=O)CNC(=O)[C@@H](NC(=O)[C@H](CC(C)C)NC(=O)[C@@H](N)CO)[C@@H](C)CC)C(N)=O (H-SLIGR[Tyr(3,5-(NO2)2)]I-NH2)	1400
CC[C@H](C)[C@H](NC(=O)[C@H](Cc1ccc(O)c([N+](=O)[O-])c1)NC(=O)[C@H](CCCNC(=N)N)NC(=O)CNC(=O)[C@@H](NC(=O)[C@H](CC(C)C)NC(=O)[C@@H](N)CO)[C@@H](C)CC)C(N)=O (H-SLIGR[Tyr(3-NO2)]I-NH2)	1400
CCOP(=O)(Cc1ccc(C[C@H](NC(=O)[C@H](CCCNC(=N)N)NC(=O)CNC(=O)[C@@H](NC(=O)[C@H](CC(C)C)NC(=O)[C@@H](N)CO)[C@@H](C)CC)C(=O)N[C@H](C(N)=O)[C@@H](C)CC)cc1)OCC (H-SLIGR[X2]I-NH2)	1300
CC[C@H](C)[C@H](NC(=O)[C@H](CCc1ccccc1)NC(=O)[C@H](CCCNC(=N)N)NC(=O)CNC(=O)[C@@H](NC(=O)[C@H](CC(C)C)NC(=O)[C@@H](N)CO)[C@@H](C)CC)C(N)=O (H-SLIGR[hPhe]I-NH2)	1800
